In brackets after ≈: the same amount, converted by molar mass. Where a name gives a salt, the structure may show the parent alone. Read-outs that look alike come from different tables or passages of the source.
Key:
[1] = system: E. coli AR-0001; test: Broth microdilution MIC, E. coli AR-0001; format: cell-based; details: Escherichia coli, AR0001; multidrug-resistant, KPC-3; CAMHB, 18 ± 2 h; read-out: minimal inhibitory concentration (MIC) E. coli AR-0001
[2] = system: E. faecalis AR-0671; test: Broth microdilution MIC, E. faecalis AR-0671; format: cell-based, Enterococcus faecalis; details: for MIC: Enterococcus faecalis
Excerpt: (§1) The multidrug-resistant S. aureus strain TCH 1516 [USA 300-HOU-MR] was obtained from the American Type Culture Collection (ATCC, Manassas, VA, USA) (Table 1). E. faecalis AR-0671, multidrug-resistant E. coli AR-0001, K. pneumoniae AR-0003, P. aeruginosa AR-1114, and A. baumannii AR-0273 strains were acquired from the Centers for Disease Control and Prevention (CDC) AR isolate bank (Table 1). Prior to the initiation of this study, all microbial strains were stored in commercial cryopreservation systems at a temperature of −80 °C. The strains were cultivated on Columbia sheep blood agar (Becton Dickinson, Franklin Lakes, NJ, USA) or potato dextrose agar (PDA) for Candida (Becton Dickinson, Franklin Lakes, NJ, USA).
(§2) The antimicrobial activity of 3-((3-hydroxyphenyl)amino)propanoic acid derivatives was assessed by using the broth microdilution method, following the guidelines outlined by the Clinical Laboratory Standards Institute (CLSI), with modifications. In brief, the compounds were dissolved in dimethyl sulfoxide (DMSO) to attain a final concentration of 25–30 mg/mL. Vancomycin hydrochloride (MedChem express, Cat. No. HY-17362), cefazolin (MedChem express, Cat. No. HY-B1892), and meropenem (MedChem express, Cat. No. HY-13678) were used as control antimicrobial drugs and were dissolved in DMSO as described before. Dilution series were prepared in deep 96-well microplates to achieve a two-fold concentration range of 0.25, 0.5, 1, 2, 4, 8, 16, 32, and 64 µg/mL, utilizing cation-adjusted Mueller–Hinton broth (CAMHB) as the growth medium. The microplates containing the dilution series were then inoculated with fresh cultures of each tested organism to reach a final concentration of 5 × 10^4 CFU (colony-forming units) of the test organism in media containing 1% DMSO and 1× drug concentration, with a volume of 200 µL per well. Wells that were inoculated with medium containing 1% DMSO served as positive controls. Subsequently, the microplates were incubated at 35 ± 1 °C for 18 ± 2 h. Following the incubation period, the plates were examined by using a manual microplate viewer (Sensititre Manual Viewbox, ThermoFisher Scientific, Waltham, MA, USA). […] All experiments were conducted in duplicate with three technical replicates for each condition.

[3] = system: S. aureus TCH 1516; test: Broth microdilution MIC, S. aureus TCH 1516; format: cell-based; details: Staphylococcus aureus
[4] = system: P. aeruginosa AR-1114; test: Broth microdilution MIC, P. aeruginosa AR-1114; format: cell-based; details: Pseudomonas aeruginosa, AR1114; IMP-15; CAMHB, 18 ± 2 h; read-out: minimal inhibitory concentration (MIC) P. aeruginosa AR-1114
[5] = system: A. baumannii AR-0273; test: Broth microdilution MIC, A. baumannii AR-0273; format: cell-based, Acinetobacter baumannii; details: Acinetobacter baumannii, AR0273; OXA-23; CAMHB, 18 ± 2 h; read-out: minimal inhibitory concentration (MIC) A. baumannii AR-0273
Excerpt: as §1, §2

[6] = system: K. pneumoniae AR-0003; test: Broth microdilution MIC, K. pneumoniae AR-0003; format: cell-based; details: Klebsiella pneumoniae, AR0003; KPC-3; CAMHB, 18 ± 2 h; read-out: minimal inhibitory concentration (MIC) K. pneumoniae AR-0003
[7] = system: FaDu cells; test: MTT cell viability at fixed 100 µM, FaDu cells; format: cell-based; details: 24 h, described in words (Figure 2)
Description: Test compounds 2–25 were dissolved in hybridoma-grade dimethyl sulfoxide (Millipore, Sigma, Burlington, MA, USA) to prepare stock solutions at concentrations of 10–25 mg/mL. […] For in vitro anticancer activity screening, the compounds were thawed at room temperature, protected from light, and the aliquots were diluted in complete cell culture media to achieve a final concentration of 100 µM and used for the in vitro assays. The cytotoxicity assays were performed in triplicate.
FaDu cells were obtained from the American Type Culture Collection (Rockville, MD, USA). HEK293 cells were kindly provided by Dr. Iliev lab at the Jill Roberts Institute for Inflammatory Bowel Disease, Weill Cornel Medicine of Cornel University (New York, NY, USA). All cells were cultivated in Dulbecco’s Modified Eagle Medium/Nutrient Mixture F-12 (DMEM/F-12) (Gibco, Waltham, MA, USA), 10% fetal bovine serum (FBS) (Gibco, Waltham, MA, USA), 100 U/mL penicillin, and 100 μg/mL streptomycin (P/S) (Gibco, Waltham, MA, USA). Culturing conditions were maintained at 37 °C in a humidified atmosphere containing 5% CO2. The culture medium was refreshed every 2–3 days, and cells were passaged upon reaching 70–80% confluence.
The in vitro inhibitory effects of the compounds were assessed by using the MTT assay. Briefly, cells were plated in 96-well plates at a density of 1 × 10⁴ cells per well. After the cells were allowed to adhere overnight at 37 °C in 5% CO₂, they were treated with compounds at a concentration of 100 µM in triplicate. Following a 20 h incubation, the MTT reagent was added, and the cells were further incubated for 4 h. The resulting formazan was solubilized in anhydrous DMSO, and absorbance was measured at 570 nm by using a microplate reader. Cell viability was calculated by using the following formula: ([AE − AB]/[AC − AB]) × 100%, where AE, AC, and AB represent the absorbance values of experimental samples, untreated controls, and blank wells, respectively. Data analysis was performed by using GraphPad Prism or QuickCalcs.

[8] = AR0671, CAMHB, 18 ± 2 h, read-out: minimal inhibitory concentration (MIC) E. faecalis AR-0671
[9] = MRSA / USA300, mecA MRSA isolate, USA300 lineage, CAMHB, 18 ±, read-out: minimal inhibitory concentration (MIC) S. aureus TCH 1516

Row | SMILES | MIC [1] [µg/mL] | MIC [2, 8] [µg/mL] | MIC [3, 9] [µg/mL] | MIC [4] [µg/mL] | MIC [5] [µg/mL] | MIC [6] [µg/mL] | minimal inhibitory concentration (MIC) E. faecalis AR-0671 ([2]; CAMHB) [µg/mL] | post-treatment viability (MTT assay) [7] | MIC ([2]; AR0671, read-out: minimal inhibitory concentration (MIC) E. faecalis AR-0671) [µg/mL] | MIC ([3]; MRSA / USA300, read-out: minimal inhibitory concentration (MIC) S. aureus TCH 1516) [µg/mL]
1 | COC(=O)CCN(CCC(=O)OC)c1cccc(O)c1 [Compound 3, Dimethyl 3,3′-((3-hydroxyphenyl)azanediyl)dipropionate] | 32 (≈ 114 µM) | > 64 | > 64 | > 64 | > 64 | > 64 | – | minimal cytotoxicity | – | –
2 | O=C(CCN(CCC(=O)NN=Cc1ccc(F)cc1F)c1cccc(O)c1)NN=Cc1ccc(F)cc1F [Compound 9, 3,3′-((3-Hydroxyphenyl)azanediyl)bis(N′-(2,4-difluorobenzylidene)propanehydrazide)] | > 64 | > 64 | > 64 | > 64 | > 64 | > 64 | – | – | – | –
3 | O=C(CCN(CCC(=O)NN=Cc1ccc(Cl)cc1)c1cccc(O)c1)NN=Cc1ccc(Cl)cc1 [Compound 11, 3,3′-((3-Hydroxyphenyl)azanediyl)bis(N′-(4-chlorobenzylidene)propanehydrazide)] | > 64 | > 64 | 64 (≈ 122 µM) | > 64 | > 64 | > 64 | >64 | – | – | –
4 | CN(C)c1ccc(/C=N/NC(=O)CCN(CCC(=O)N/N=C/c2ccc(N(C)C)cc2)c2cccc(O)c2)cc1 [Compound 12] | > 64 | > 64 | 64 (≈ 118 µM) | 64 (≈ 118 µM) | 64 (≈ 118 µM) | 64 (≈ 118 µM) | – | enhanced cytotoxic effects | – | –
5 | C/C(=N\NC(=O)CCN(CCC(=O)N/N=C(\C)c1ccc(S(N)(=O)=O)cc1)c1cccc(O)c1)c1ccc(S(N)(=O)=O)cc1 [Compound 22, 4,4′-(((3,3′-((3-Hydroxyphenyl)azanediyl)bis(propanoyl))bis(hydrazin-2-yl-1-ylidene))bis(ethan-1-yl-1-ylidene))dibenzenesulfonamide] | 16 (≈ 24.9 µM) | 32 (≈ 49.7 µM) | 8 (≈ 12.4 µM) | > 64 | > 64 | > 64 | – | – | – | –
6 | Cc1cc(C)n(C(=O)CCN(CCC(=O)n2nc(C)cc2C)c2cccc(O)c2)n1 [Compound 24, 3,3′-((3-Hydroxyphenyl)azanediyl)bis(1-(3,5-dimethyl-1H-pyrazol-1-yl)propan-1-one)] | > 64 | > 64 | > 64 | > 64 | > 64 | > 64 | – | reduced viability | – | –
7 | CN[C@H](CC(C)C)C(=O)N[C@H]1C(=O)N[C@@H](CC(N)=O)C(=O)N[C@H]2C(=O)N[C@H]3C(=O)N[C@H](C(=O)N[C@H](C(=O)O)c4cc(O)cc(O)c4-c4cc3ccc4O)[C@H](O)c3ccc(c(Cl)c3)Oc3cc2cc(c3O[C@@H]2O[C@H](CO)[C@@H](O)[C@H](O)[C@H]2O[C@H]2C[C@](C)(N)[C@H](O)[C@H](C)O2)Oc2ccc(cc2Cl)[C@H]1O [Vancomycin, Vancomycin hydrochloride, reference compound] | – | – | – | – | – | – | – | – | 4 | 2

Second part, led by results:

Row | MIC [1] [µg/mL] | MIC [2, 8] [µg/mL] | MIC [3, 9] [µg/mL] | MIC [4] [µg/mL] | MIC [5] [µg/mL] | MIC [6] [µg/mL] | minimal inhibitory concentration (MIC) E. faecalis AR-0671 ([2]; CAMHB) [µg/mL] | SMILES | post-treatment viability (MTT assay) [7] | MIC ([2]; AR0671, read-out: minimal inhibitory concentration (MIC) E. faecalis AR-0671) [µg/mL] | MIC ([3]; MRSA / USA300, read-out: minimal inhibitory concentration (MIC) S. aureus TCH 1516) [µg/mL]
8 | > 64 | 8 (≈ 17.6 µM) | 32 (≈ 70.4 µM) | > 64 | > 64 | > 64 | – | Cc1nnc(SCC2=C(C(=O)O)N3C(=O)[C@@H](NC(=O)Cn4cnnn4)[C@H]3SC2)s1 [Cefazolin, cefazolin, reference compound] | – | – | –
9 | 64 (≈ 115 µM) | 8 (≈ 14.3 µM) | 2 (≈ 3.59 µM) | > 64 | > 64 | > 64 | – | O=C(CCN(CCC(=O)NN=Cc1cccc2ccccc12)c1cccc(O)c1)NN=Cc1cccc2ccccc12 [Compound 14, 3,3′-((3-Hydroxyphenyl)azanediyl)bis(N′-(naphthalen-1-ylmethylene)propanehydrazide)] | – | – | –
10 | > 64 | > 64 | > 64 | 64 (≈ 146 µM) | 64 (≈ 146 µM) | > 64 | – | O=C(CCN(CCC(=O)N/N=C/c1ccco1)c1cccc(O)c1)N/N=C/c1ccco1 [Compound 15] | enhanced cytotoxic effects | – | –
11 | > 64 | 32 (≈ 82.2 µM) | 16 (≈ 41.1 µM) | > 64 | > 64 | > 64 | – | CCC(C)=NNC(=O)CCN(CCC(=O)NN=C(C)CC)c1cccc(O)c1 [Compound 20, 3,3′-((3-Hydroxyphenyl)azanediyl)bis(N′-(butan-2-ylidene)propanehydrazide)] | – | – | –
12 | > 64 | 32 (≈ 65.9 µM) | 32 (≈ 65.9 µM) | > 64 | > 64 | > 64 | – | CC(=NNC(=O)CCN(CCC(=O)NN=C(C)c1ccccc1)c1cccc(O)c1)c1ccccc1 [Compound 21, 3-((3-Hydroxyphenyl)(3-oxo-3-(2-(1-phenylethylidene)hydrazineyl)propyl)amino)-N′-(1-phenylethylidene)propanehydrazide] | – | – | –
13 | > 64 | > 64 | 64 (≈ 146 µM) | > 64 | > 64 | > 64 | – | Cc1ccc(C)n1NC(=O)CCN(CCC(=O)Nn1c(C)ccc1C)c1cccc(O)c1 [Compound 23, 3,3′-((3-Hydroxyphenyl)azanediyl)bis(N-(2,5-dimethyl-1H-pyrrol-1-yl)propanamide)] | reduced viability | – | –
14 | 8 (≈ 20.9 µM) | 2 (≈ 5.22 µM) | 2 (≈ 5.22 µM) | 32 (≈ 83.4 µM) | > 64 | 64 (≈ 167 µM) | – | C[C@@H](O)[C@H]1C(=O)N2C(C(=O)O)=C(S[C@@H]3CN[C@H](C(=O)N(C)C)C3)[C@H](C)[C@H]12 [Meropenem, meropenem, reference compound] | – | – | –

From PMC12115217, “3,3′-((3-Hydroxyphenyl)azanediyl)dipropionic Acid Derivatives as a Promising Scaffold Against Drug-Resistant Pathogens and Chemotherapy-Resistant Cancer” (Pathogens, 2025)
